# Reference: publication PMC3561413 (PLoS ONE, 2013)
# Legend:
# [1] = tested on: HEL cells (JAK2V617F mutated); assay: Inhibition of proliferation assay (WST-1, 48 h), HEL; type: cell-based; conditions: Homo sapiens
# Description: (§1) Ba/F3-EPOR cells, both wt and VF, HEL and SET2 cells were plated at 2×10^4 in 96-well culture tissue plates with increasing concentrations of the drug(s), in triplicate, and the amount of viable cells was assessed at 48 h using the WST-1 assay (Roche, USA) after normalization to wells containing an equivalent volume of vehicle (DMSO) only. For clonogenic assay, 5×10^3 cells were plated in 0.5% agar in medium supplemented with 10% FBS (plus 1 U/mL EPO in case of Ba/F3-EPOR wt cells); variable amount of the drug(s) (or an equivalent volume of vehicle in control plates) was added once at the beginning of culture. Colonies were enumerated by inverted microscopy after 7 day incubation, in duplicate. Quantification of apoptotic cells was accomplished by flow cytometry using the Annexin-V-FLUOS Staining kit (Roche); at least 20,000 events were acquired. For cell cycle distribution analysis by flow cytometry, 1×10^6 cells were treated with ethanol 95%, RNase 10 µg/mL and propidium iodide […].
# [2] = tested on: Ba/F3-EPOR VF cells (JAK2V617F); assay: Clonogenic assay in agar, Ba/F3-EPOR VF; type: cell-based; conditions: Mus musculus, 168 h, semisolid culture, 7 days, single drug, read-out: IC50 of colony formation (clonogenic assay)
# Description: as §1
# [3] = tested on: CD34+ cells from healthy controls; assay: CD34+ proliferation assay (WST-1, 48 h), healthy controls; type: cell-based; conditions: Homo sapiens, CD34+ cell; healthy subjects n = 5, 48 h, cytokine cocktail
# Description: (§2) To measure the drug-induced inhibition of CD34^+ cell growth, purified cells were plated at 3·10^4 cells/well in IDMEM supplemented with cytokines and variable amounts of the drugs were added. Cell proliferation was evaluated using the WST-1 Assay (Roche, USA) after 48 h and results were normalized to wells containing vehicle only.
# (§3) CD34^+ cells from patients with PMF (n = 6) or control subjects (Ctr; n = 5) were plated at 2×10^5/mL in 96-well culture tissue plates with increasing concentrations of the drugs, in triplicate; viable cells were assessed after 48 hrs using the WST-1 assay and normalized to wells containing an equivalent volume of vehicle (DMSO) only.
# [4] = tested on: BFU-E from healthy controls; assay: Colony assay for hematopoietic progenitors, BFU-E, healthy controls; type: cell-based; conditions: Homo sapiens, 336 h; Ctrl (n = 10), day 14; read-out: IC50, BFU-E colony formation
# Description: (§4) Figure 3 mTOR and JAK2 inhibitors preferentially suppress colony formation from hematopoietic progenitors of MPN patients as compared to healthy controls. Mononuclear cells from patients with PV or PMF (n = 10 each) or control subjects (n = 10) were plated at 10^5/mL in cytokine-supplemented methylcellulose medium for the growth of erythroid burst-forming unit (BFU-E) and granulocyte-macrophage colony-forming unit (CFU-GM), and CD34^+ cells (5×10^4/mL) were plated in collagen-based medium for megakaryocyte colony-forming unit (CFU-Mk). […] Colonies were enumerated on day 14 and expressed as a percentage of the colonies grown in control plates containing vehicle only.
# [5] = tested on: Ba/F3-EPOR wt cells (JAK2 wild-type); assay: Clonogenic assay in agar, Ba/F3-EPOR wt; type: cell-based; conditions: Mus musculus, 168 h, semisolid culture, 7 days, 1 U/mL EPO, read-out: IC50 of colony formation (clonogenic assay)
# Description: as §1
# [6] = tested on: CFU-Mk from healthy controls; assay: Colony assay for hematopoietic progenitors, CFU-Mk, healthy controls; type: cell-based; conditions: Homo sapiens, 336 h; Ctrl (n = 10), day 14; read-out: IC50, CFU-Mk colony formation
# Description: as §4
# [7] = tested on: HEL cells (JAK2V617F mutated); assay: Clonogenic assay in agar, HEL; type: cell-based; conditions: Homo sapiens, Table 1
# Description: as §1
# CFU-GM from PV patients = assay: Colony assay for hematopoietic progenitors, CFU-GM, PV patients; type: cell-based; conditions: Homo sapiens, 336 h, PV (n = 10), day 14, read-out: IC50, CFU-GM colony formation
# Description: as §4
# [8] = tested on: SET2 cells (JAK2V617F mutated); assay: Clonogenic assay in agar, SET2; type: cell-based; conditions: Homo sapiens, SET-2
# Description: as §1
# CFU-Mk from PMF patients = assay: Colony assay for hematopoietic progenitors, CFU-Mk, PMF patients; type: cell-based; conditions: Homo sapiens, 336 h; MF (n = 10), day 14; read-out: IC50, CFU-Mk colony formation
# Description: as §4
# CFU-GM from PMF patients = assay: Colony assay for hematopoietic progenitors, CFU-GM, PMF patients; type: cell-based; conditions: Homo sapiens, 336 h, MF (n = 10), day 14, read-out: IC50, CFU-GM colony formation
# Description: as §4
# [9] = tested on: CD34+ cells from PMF patients; assay: CD34+ proliferation assay (WST-1, 48 h), PMF patients; type: cell-based; conditions: Homo sapiens, CD34+ cell; PMF patients n = 6, 48 h, cytokine cocktail
# Description: as §2, §3
# [10] = tested on: CFU-GM from healthy controls; assay: Colony assay for hematopoietic progenitors, CFU-GM, healthy controls; type: cell-based; conditions: Homo sapiens, 336 h, Ctrl (n = 10), day 14, read-out: IC50, CFU-GM colony formation
# Description: as §4
# Ba/F3-EPOR VF cells [11] = assay: Apoptosis (Annexin V flow cytometry), Ba/F3-EPOR VF; type: cell-based, mouse; conditions: for IC50: Mus musculus, 48 h, median, read-out: IC50 for apoptosis (Annexin V positive cells)
# Description: as §1
# (§5) Results shown are the Mean±SD of at least three experiments. In panel B, the percentage of Annexin V-positive cells was measured in cultures of Ba/F3-EPOR VF cells exposed to varying amount of the drugs for 48 h; percentage was calculated after subtraction of background apoptosis in cells incubated without drug. Results shown are the Mean±SD of at least three experiments. (TIF) Click here for additional data file.
# BFU-E from PMF patients = assay: Colony assay for hematopoietic progenitors, BFU-E, PMF patients; type: cell-based; conditions: Homo sapiens, 336 h; MF (n = 10), day 14; read-out: IC50, BFU-E colony formation
# Description: as §4
# Ba/F3-EPOR VF cells [12] = assay: Cell cycle distribution analysis by flow cytometry (propidium iodide), Ba/F3-EPOR VF; type: cell-based; conditions: Mus musculus, after 24 hours, median value, read-out: concentration giving 50% reduction of the cells in the S-phase compared to untreated cells
# Description: as §1, §5
# SET2 cells [13] = assay: Apoptosis (Annexin V flow cytometry), SET2; type: cell-based; conditions: Homo sapiens, SET-2; SET2, median
# Description: as §1
# CFU-Mk from PV patients = assay: Colony assay for hematopoietic progenitors, CFU-Mk, PV patients; type: cell-based; conditions: Homo sapiens, 336 h; PV (n = 10), day 14; read-out: IC50, CFU-Mk colony formation
# Description: as §4
# [14] = tested on: EEC from peripheral blood mononuclear cells of PV patients; assay: EEC assay (erythropoietin-independent erythroid colonies), PV patients; conditions: Homo sapiens, PBMC, 240 h, read-out: IC50 of EEC growth
# BFU-E from PV patients = assay: Colony assay for hematopoietic progenitors, BFU-E, PV patients; type: cell-based; conditions: Homo sapiens, 336 h; PV (n = 10), day 14; read-out: IC50, BFU-E colony formation
# Description: as §4
# [15] = tested on: Ba/F3-EPOR VF cells (JAK2V617F); assay: Inhibition of proliferation assay (WST-1, 48 h), Ba/F3-EPOR VF; type: cell-based; conditions: Mus musculus
# Description: as §1
# SET2 cells [16] = assay: Cell cycle distribution analysis by flow cytometry, SET2; type: cell-based; conditions: Homo sapiens, SET-2; SET2, median concentration; read-out: concentration giving 50% reduction of cells in the S-phase compared to controls
# Description: as §1
# [17] = tested on: SET2 cells (JAK2V617F mutated); assay: Inhibition of proliferation assay (WST-1, 48 h), SET2; type: cell-based; conditions: Homo sapiens, SET-2, SET2, 48 h
# Description: as §1
# [18] = tested on: Ba/F3-EPOR wt cells (JAK2 wild-type); assay: Inhibition of proliferation assay (WST-1, 48 h), Ba/F3-EPOR wt; type: cell-based; conditions: Mus musculus, 1 U/mL EPO, mean±SD, read-out: IC50 of cell proliferation
# Description: as §1
# [19] = SET2, Table 1, read-out: IC50, clonogenic assay
# [20] = SET2, Table 3, read-out: IC50, clonogenic potential, single drug
# [21] = SET2, running text b32, read-out: concentration preventing colony formation (mean value)
# [22] = BaF3, 48 h, Ba/F3 VF liquid culture maintained with Epo 1 U/mL, read-out: IC50 of cell proliferation in the presence of Epo
# [23] = Ba/F3-EPOR VF, 48 h, single drug, cytokine-free medium, mean±SD, read-out: IC50 of cell proliferation
# [24] = Table 3, read-out: IC50, proliferation, single drug
# [25] = read-out: IC50, proliferation assay
smiles,measurement,setting,value
Cc1cc(Nc2nc(N[C@@H](C)c3ncc(F)cn3)ncc2Cl)n[nH]1 [AZD1480],IC50,[1],860 ± 20 nM
same,IC50,[2],19 ± 11 nM
same,IC50,[3],891 ± 100 nM
same,IC50,[4],226 ± 17 nM
same,IC50,[5],750 ± 100 nM
same,IC50,[6],400 ± 12 nM
same,IC50,[7],460 ± 30 nM
same,IC50,CFU-GM from PV patients,46 ± 5 nM
same,IC50,[8]; [19],35 ± 10 nM
same,IC50,[8]; [20],35 ± 10 nM
same,IC50,[8]; [21],35 nM
same,IC50,CFU-Mk from PMF patients,59 ± 3 nM
same,IC50,CFU-GM from PMF patients,9 ± 3 nM
same,IC50,[9],474 ± 30 nM
same,IC50,[10],193 ± 13 nM
same,IC50,Ba/F3-EPOR VF cells [11],800 nM
same,IC50,BFU-E from PMF patients,27 ± 8 nM
same,IC50,Ba/F3-EPOR VF cells [12],1200 nM
same,IC50,SET2 cells [13],400 nM
same,IC50,CFU-Mk from PV patients,44 ± 2 nM
same,IC50,[14],19 ± 2 nM
same,IC50,BFU-E from PV patients,135 ± 19 nM
same,IC50,[15]; [22],707 ± 11 nM
same,IC50,[15]; [23],313 ± 23 nM
same,IC50,SET2 cells [16],1500 nM
same,IC50,[17]; [24],90 ± 5 nM
same,IC50,[17]; [25],90 ± 5 nM
same,IC50,[18],752 ± 30 nM
"CO[C@H]1C[C@@H]2CC[C@@H](C)[C@@](O)(O2)C(=O)C(=O)N2CCCC[C@H]2C(=O)O[C@H]([C@H](C)C[C@@H]2CC[C@@H](OCCO)[C@H](OC)C2)CC(=O)[C@H](C)/C=C(\C)[C@@H](O)[C@@H](OC)C(=O)[C@H](C)C[C@H](C)/C=C/C=C/C=C/1C [RAD001, Everolimus]",IC50,[1],14000 ± 2800 nM
same,IC50,[2],4 ± 2 nM
same,IC50,[3],> 5000 nM
same,IC50,[4],432 ± 22 nM
same,IC50,[5],22 ± 10 nM
same,IC50,[6],572 ± 13 nM
same,IC50,[7],930 ± 10 nM
same,IC50,CFU-GM from PV patients,75 ± 4 nM
same,IC50,[8]; [19],44 ± 15 nM
same,IC50,[8]; [20],44 ± 15 nM
same,IC50,[8]; [21],44 nM
same,IC50,CFU-Mk from PMF patients,44 ± 5 nM
same,IC50,CFU-GM from PMF patients,46 ± 13 nM
same,IC50,[9],271 ± 100 nM
same,IC50,[10],335 ± 16 nM
same,IC50,Ba/F3-EPOR VF cells [11],5000 nM
same,drug concentration at which an increase of apoptotic cells became appreciable,Ba/F3-EPOR VF cells [11]; followed by a plateau,> 3.3 µM
same,IC50,BFU-E from PMF patients,42 ± 10 nM
same,IC50,Ba/F3-EPOR VF cells [12],6500 nM
same,IC50,SET2 cells [13],38000 nM
same,IC50,CFU-Mk from PV patients,50 ± 5 nM
same,IC50,[14],15 ± 10 nM
same,IC50,BFU-E from PV patients,91 ± 15 nM
same,IC50,[15]; [22],1230 nM
same,IC50,[15]; [23],651 ± 50 nM
same,IC50,SET2 cells [16],33000 nM
same,IC50,[17]; [24],17000 nM
same,IC50,[17]; [25],17000 nM
same,IC50,[18],11000 nM
"N#CC[C@H](C1CCCC1)n1cc(-c2ncnc3[nH]ccc23)cn1 [Ruxolitinib, ruxolitinib]",IC50,[3],> 5000 nM
same,IC50,[4],167 ± 70 nM
same,IC50,[6],12 ± 5 nM
same,IC50,CFU-GM from PV patients,39 ± 6 nM
same,IC50,CFU-Mk from PMF patients,4 ± 3 nM
same,IC50,CFU-GM from PMF patients,43 ± 4 nM
same,IC50,[9],840 ± 300 nM
same,IC50,[10],209 ± 40 nM
same,IC50,Ba/F3-EPOR VF cells [11],1300 nM
same,IC50,BFU-E from PMF patients,46 ± 10 nM
same,IC50,Ba/F3-EPOR VF cells [12],1870 nM
same,IC50,SET2 cells [13],500 nM
same,IC50,CFU-Mk from PV patients,4 ± 2 nM
same,IC50,[14],1.8 ± 1 nM
same,IC50,SET2 cells [16],10000 nM
